The record followed here is patent publication EP0180615B1, “NOVEL ATRIAL NATRIURETIC/VASODILATOR POLYPEPTIDES” (priority 1984, dated 1995).

The subject of experiment [1] is cultured bovine aortic smooth muscle cells. As to the kind of experiment: cyclic GMP accumulation in cultured aortic smooth muscle cells. The experiment is classed as cell-based. The note with it: dose-response, % of maximal cyclic GMP increase (Figure 11A). From the text:
(§1) Since the agonistic action of ANVP in vascular smooth muscle not only results from binding to specific receptors, but is also associated with increases in cyclic GMP, the effects of ANVPs and analogs on cyclic GMP accumulation were examined using the same cultured cells. […] In Figure 11A & B, the relative activities of ANVP and analogs on cyclic GMP accumulation in aortic smooth muscle and endothelial cells are shown. The data is plotted in a dose-response relationship (log dose vs % of maximal cyclic GMP increases).

Experiment [2] deals with cultured bovine aortic endothelial cells. As to the kind of experiment: cyclic GMP accumulation in cultured aortic endothelial cells. The experiment is classed as cell-based. The note with it: dose-response, % of maximal cyclic GMP increase (Figure 11B).
Source text: as §1

The subject of experiment [3] is binding sites on vascular smooth muscle cells. Nature of the experiment: 125I-ANVP binding and displacement on cultured vascular wall cells. The note with it: unlabelled competitor; vascular smooth muscle cells (Table III). Also noted: species or system bovine.
Description: Therefore, cells of vascular wall origin, e.g. bovine aortic smooth muscle and endothelial cells, were used to determine binding of ANVP compounds to specific receptors and associated cyclic GMP increases were measured.
Binding assays were performed as follows: ANVPs were labelled with ^1251 according to the procedure of Schenk, et al., J. Biol. Chem., 259:14941-14951 (1984). This procedure utilizes glucose oxidase and lactoperoxidase mediated oxidations to transfer ^1251 to the tyrosine on the ANVP molecule. ^1251-ANVP was then added to 10 mm confluent cultures of vascular wall cells and incubated at 37 °C.
Thus, the displacement of ^1251-ANVP binding by ANVPs and analogs as a function of concentration is a reflection of their potency to bind to the vascular wall and alter the contractile state of the vessel.
The test system of experiment [4] is isolated rat kidney. Nature of the experiment: isolated perfused rat kidney. As for the experimental part: The activity of rANVP(126-149) was measured in the isolated rat kidney. Functioning isolated rat kidneys were perfused in a closed-circuit system, as described in Camargo, M.J.F. et al. Am.J.Physiol., 246:F447-F456 (1984). After control clearance periods, 0.1 to 1.0 µg of the compound was added to the perfusate. The effects on multiple parameters were noted. These peak values are expressed in Table I as the experimental data. It is clear that rANVP(126-149) caused urine flow rate, urinary sodium excretion, filtration fraction and glomerular filtration rate to increase.
Isolated rat kidneys were treated as described in Table I. Control periods for each compound are denoted by C and experimental periods following the addition of compounds are denoted by E. V-urine flow rate UNaV-urinary sodium excretion rate, GFR-glomerular filtration rate. Data represent the mean of 3-8 experiments.
Samples of the above expressed material were also tested for natriuretic and diuretic activity using the isolated perfused rat kidney model as described by Camargo, M. et al., Am. J. Physiol. 246:F447-F456-(1984). As shown in Table VIII material synthesized and secreted by yeast cultures containing YEp-a-NF-5 and purified as described above through the SP-Sephadex step increased urinary Na^+ excretion approximately 3-fold and urinary volume 2-fold as examined during repeated test periods of 10 minutes each. […] No significant increase occurred in urinary Na^+ excretion, urinary volume, glomerular filtration or renal resistance when the same experiment was performed on material synthesized and secreted by yeast cultures containing the reverse orientation control plasmid YEp-a-NF-7 and purified through SP-Sephadex@.

Experiment [5] concerns intact rat. As to the kind of experiment: natriuresis after bolus injection in the intact anesthetized rat. The experiment is classed as in vivo. The note with it: Inactin anesthetized rats on constant saline infusion. As for the experimental part: Synthetic ANVP compounds rANVP(126-149), rANVP(126-150) and hANVP(127-151) were also found to be natriuretic in the intact rat. These compounds were administered as a bolus injection to Inactin anesthetized rats (100 mg/kg, average weight 399 g) which were maintained on a constant infusion of normal saline at 2.2 ml/hr. […] Data are expressed as mean ± SE.

Experiment [6] deals with anesthetized dogs. As to the kind of experiment: renal and hemodynamic effects of constant infusion in anesthetized dogs. Format: in vivo. The note with it: 1 µg/kg bolus, followed by 0.1 µg/kg/min for 1 hour. Here is the method:
Renal and hemodynamic effects have also been measured in anesthetized dogs receiving a constant infusion of the compound rANVP(126-149) (1 µg/kg bolus, followed by 0.1 µg/kg/min for 1 hour). Immediate effects were noted on blood pressure, GFR and urine flow rate and electrolyte excretion which were sustained throughout the infusion. The "experimental" data presented for these parameters in Table IV are the average values obtained during the infusion. […] All these parameters returned to control (i.e. pre-infusion) levels during the recovery period (i.e. following termination of the infusion).
(§2) Thus, ANVPs are able to block the effects of the renin-angiotensin system at several levels: (1) they antagonize the direct actions of angiotensin on its target organs (blood vessels and the adrenal); and (2) inhibit renin secretion, which leads to a reduced rate of angiotensin formation in the blood.

The subject of experiment [7] is isolated adrenal cells. Nature of the experiment: angiotensin-stimulated aldosterone production by isolated adrenal cells. Format: cell-based.
Source text: as §2

[8] abbreviates: 0.1 to 1.0 µg added to the perfusate after control clearance periods, peak values.
Setting [9] is: 0.1 to 1.0 µg added to the perfusate, perfused in the absence of vasoconstrictors.

Positions of bridges follow the written chain, without caps; N, C: chain ends. Residues, ends and D or L forms follow the SMILES beside them.

`CC[C@H](C)[C@@H]1NC(=O)[C@H](CCCNC(=N)N)NC(=O)[C@H](CC(=O)O)NC(=O)[C@H]([C@@H](C)CC)NC(=O)[C@H](CCCNC(=N)N)NC(=O)CNC(=O)[C@@H](C)NC(=O)[C@H](Cc2ccccc2)NC(=O)[C@@H](NC(=O)[C@H](CO)NC(=O)[C@H](CO)NC(=O)[C@@H](N)CCCNC(=N)N)CSSC[C@@H](C(=O)N[C@@H](CC(N)=O)C(=O)N[C@@H](CO)C(=O)N[C@@H](Cc2ccccc2)C(=O)N[C@@H](CCCNC(=N)N)C(=O)N[C@@H](Cc2ccc(O)cc2)C(=O)O)NC(=O)CNC(=O)[C@H](CC(C)C)NC(=O)CNC(=O)[C@H](CO)NC(=O)[C@H](CCC(N)=O)NC(=O)[C@H](C)NC(=O)CNC1=O` [[D-Ala^131]rANVP(126-150)]: the “rank order of potency, cyclic GMP accumulation” value (“rank order of potency” below) in experiment [1] and in experiment [2] was “> rANVP(127-150) = other D amino acid substitutions” throughout.
In the case of `CC[C@H](C)[C@@H]1NC(=O)[C@H](CCCNC(=N)N)NC(=O)[C@H](CC(=O)O)NC(=O)[C@H]([C@@H](C)CC)NC(=O)[C@H](CCCNC(=N)N)NC(=O)CNC(=O)CNC(=O)[C@H](Cc2ccccc2)NC(=O)[C@@H](NC(=O)[C@H](CO)NC(=O)[C@H](CO)NC(=O)[C@@H](N)CCCNC(=N)N)CSSC[C@@H](C(=O)N[C@@H](CC(N)=O)C(=O)N[C@@H](CO)C(=O)N[C@@H](Cc2ccccc2)C(=O)N[C@@H](CCCNC(=N)N)C(=O)N[C@@H](Cc2ccc(O)cc2)C(=O)O)NC(=O)CNC(=O)[C@H](CC(C)C)NC(=O)[C@@H](C)NC(=O)[C@H](CO)NC(=O)[C@H](CCC(N)=O)NC(=O)[C@H](C)NC(=O)CNC1=O` [[D-Ala^142]rANVP(126-150), [D-Ala'^42]rANVP(126-150)], the “displacement of 125I-ANVP binding” value in experiment [3] is “most reactive”. For the same compound, the “rank order of potency” value in experiment [1] and in experiment [2] was “> rANVP(127-150) = other D amino acid substitutions” in each case.
Turning to `CC[C@H](C)[C@@H]1NC(=O)[C@H](CCCNC(=N)N)NC(=O)[C@H](CC(=O)O)NC(=O)[C@H]([C@@H](C)CC)NC(=O)[C@H](CCCNC(=N)N)NC(=O)CNC(=O)CNC(=O)[C@H](Cc2ccccc2)NC(=O)[C@@H](NC(=O)[C@H](CO)NC(=O)[C@H](CO)NC(=O)[C@@H](N)CCCNC(=N)N)CSSC[C@@H](C(=O)N[C@@H](CC(N)=O)C(=O)N[C@@H](CO)C(=O)N[C@@H](Cc2ccccc2)C(=O)N[C@@H](CCCNC(=N)N)C(=O)O)NC(=O)CNC(=O)[C@H](CC(C)C)NC(=O)CNC(=O)[C@H](CO)NC(=O)[C@H](CCC(N)=O)NC(=O)[C@H](C)NC(=O)CNC1=O` [rANVP(126-149), rANVP (126-149)] (H-RSSCFGGRIDRIGAQSGLGCNSFR-OH; disulfide 4-20), in experiment [4] (setting [8]), the urinary sodium excretion entry was “increase” and the urine flow rate entry is on record as “increase”. In experiment [4] (setting [9]), the filtration fraction entry is reported as “increase” and the glomerular filtration rate entry is “increase”. The “rank order of potency” value in experiment [1] is “> rANVP(127-150) = other D amino acid substitutions”. The “rank order of potency” value in experiment [2] was “> rANVP(127-150) = other D amino acid substitutions”. The “natriuretic in the intact rat” value in experiment [5] is “natriuretic”. For the same compound, in experiment [6], the GFR rose was 25-35%; the “Mean arterial pressure (MAP) fell” value was 10-15%; the diuresis and natriuresis result is “sustained diuresis and natriuresis”; the “plasma aldosterone (PA)” value is “significant decreases”. In experiment [6], the “plasma renin activity (PRA)” value is “significant decreases”. Further, in experiment [7], the “ability of angiotensin to stimulate aldosterone production” value is “inhibits”.
Turning to angiotensin, the “displacement of 125I-ANVP binding” value in experiment [3] was “not by a variety of hormones”.
For glucagon, the “displacement of 125I-ANVP binding” value in experiment [3] is recorded as “not by a variety of hormones”.
Still for that read-out and setting: then vasopressin, with “not by a variety of hormones”.
